± gives the standard deviation of the averaged measurements.
System: HCI-003.E2 (organoid from an ER-positive breast cancer xenograft)
Experiment: CTG-3D luminescence at 96 h relative to day-0 seeding control (ratio to day 0); higher = more growth / less cytotoxicity; PDxO 3D drug screen, 96 h, CTG-3D normalised to day-0 seeding control.
Settings: 12.5 pM

C[C@@H]1COCCN1c1cc(C2([S@](C)(=N)=O)CC2)nc(-c2cc[nH]c3nccc2-3)n1 [ceralasertib] and NC1(C(=O)N[C@@H](CCO)c2ccc(Cl)cc2)CCN(c2nc[nH]c3nccc2-3)CC1 [capivasertib] are within error of each other in “CTG-3D luminescence at 96 h” value: 2.11 ± 0.55 for the first, 2.4 ± 0.86 for the second.

CCN1CCN(Cc2ccc(Nc3ncc(F)c(-c4cc(F)c5nc(C)n(C(C)C)c5c4)n3)nc2)CC1 [abemaciclib] and Cc1cc(Nc2ncc(Cl)c(Nc3ccccc3S(=O)(=O)C(C)C)n2)c(OC(C)C)cc1C1CCNCC1 [ceritinib] are within error of each other in “CTG-3D luminescence at 96 h” value: 2.17 ± 0.76 for the first, 2.16 ± 0.93 for the second.

CC(C)n1nc(-c2ccc3oc(N)nc3c2)c2c(N)ncnc21 [sapanisertib] and NC(=O)c1cccc2cn(-c3ccc([C@@H]4CCCNC4)cc3)nc12 [niraparib] are within error of each other in “CTG-3D luminescence at 96 h” value: 2.24 ± 0.71 for the first, 2.06 ± 0.91 for the second.

O=C(c1ccc(F)c(F)c1Nc1ccc(I)cc1F)N1CC(O)([C@@H]2CCCCN2)C1 [cobimetinib] and CS(=O)(=O)c1ccc(C(=O)Nc2ccc(Cl)c(-c3ccccn3)c2)c(Cl)c1 [vismodegib] are within error of each other in “CTG-3D luminescence at 96 h” value: 2.11 ± 0.75 for the first, 1.92 ± 0.81 for the second.

C[C@H](NC(=O)CCC(F)(F)F)C(=O)N[C@@H]1C(=O)N(CCO)c2ncccc2-c2ccccc21 [crenigacestat] was tested, and the “CTG-3D luminescence at 96 h” value was 2.2 ± 0.74.

Same assay, conditions: 0.00025 µM

C[C@@H]1COCCN1c1cc(C2([S@](C)(=N)=O)CC2)nc(-c2cc[nH]c3nccc2-3)n1 [ceralasertib] and NC1(C(=O)N[C@@H](CCO)c2ccc(Cl)cc2)CCN(c2nc[nH]c3nccc2-3)CC1 [capivasertib] are within error of each other in “CTG-3D luminescence at 96 h” value: 2.23 ± 0.58 for the first, 2.22 ± 0.62 for the second.

CCN1CCN(Cc2ccc(Nc3ncc(F)c(-c4cc(F)c5nc(C)n(C(C)C)c5c4)n3)nc2)CC1 [abemaciclib] and Cc1cc(Nc2ncc(Cl)c(Nc3ccccc3S(=O)(=O)C(C)C)n2)c(OC(C)C)cc1C1CCNCC1 [ceritinib] are within error of each other in “CTG-3D luminescence at 96 h” value: 2.14 ± 0.51 for the first, 2.04 ± 0.61 for the second.

CC(C)n1nc(-c2ccc3oc(N)nc3c2)c2c(N)ncnc21 [sapanisertib] and NC(=O)c1cccc2cn(-c3ccc([C@@H]4CCCNC4)cc3)nc12 [niraparib] are within error of each other in “CTG-3D luminescence at 96 h” value: 2.55 ± 0.68 for the first, 2.18 ± 0.87 for the second.

O=C(c1ccc(F)c(F)c1Nc1ccc(I)cc1F)N1CC(O)([C@@H]2CCCCN2)C1 [cobimetinib] and CS(=O)(=O)c1ccc(C(=O)Nc2ccc(Cl)c(-c3ccccn3)c2)c(Cl)c1 [vismodegib] are within error of each other in “CTG-3D luminescence at 96 h” value: 2.48 ± 0.68 for the first, 2.03 ± 0.61 for the second.

In the case of C[C@H](NC(=O)CCC(F)(F)F)C(=O)N[C@@H]1C(=O)N(CCO)c2ncccc2-c2ccccc21 [crenigacestat], the “CTG-3D luminescence at 96 h” value is reported as 2.4 ± 0.87.

Same assay, conditions: 0.005 µM

C[C@@H]1COCCN1c1cc(C2([S@](C)(=N)=O)CC2)nc(-c2cc[nH]c3nccc2-3)n1 [ceralasertib] and NC1(C(=O)N[C@@H](CCO)c2ccc(Cl)cc2)CCN(c2nc[nH]c3nccc2-3)CC1 [capivasertib] are within error of each other in “CTG-3D luminescence at 96 h” value: 2.12 ± 0.52 for the first, 2.03 ± 0.41 for the second.

CCN1CCN(Cc2ccc(Nc3ncc(F)c(-c4cc(F)c5nc(C)n(C(C)C)c5c4)n3)nc2)CC1 [abemaciclib] and Cc1cc(Nc2ncc(Cl)c(Nc3ccccc3S(=O)(=O)C(C)C)n2)c(OC(C)C)cc1C1CCNCC1 [ceritinib] are within error of each other in “CTG-3D luminescence at 96 h” value: 2.02 ± 0.48 for the first, 1.82 ± 0.26 for the second.

CC(C)n1nc(-c2ccc3oc(N)nc3c2)c2c(N)ncnc21 [sapanisertib] and NC(=O)c1cccc2cn(-c3ccc([C@@H]4CCCNC4)cc3)nc12 [niraparib] are within error of each other in “CTG-3D luminescence at 96 h” value: 1.59 ± 0.54 for the first, 1.93 ± 0.43 for the second.

O=C(c1ccc(F)c(F)c1Nc1ccc(I)cc1F)N1CC(O)([C@@H]2CCCCN2)C1 [cobimetinib] and CS(=O)(=O)c1ccc(C(=O)Nc2ccc(Cl)c(-c3ccccn3)c2)c(Cl)c1 [vismodegib] are within error of each other in “CTG-3D luminescence at 96 h” value: 1.98 ± 0.5 for the first, 1.93 ± 0.45 for the second.

In the case of C[C@H](NC(=O)CCC(F)(F)F)C(=O)N[C@@H]1C(=O)N(CCO)c2ncccc2-c2ccccc21 [crenigacestat], the “CTG-3D luminescence at 96 h” value is reported as 2.11 ± 0.45.

Same assay, conditions: 0.1 µM

C[C@@H]1COCCN1c1cc(C2([S@](C)(=N)=O)CC2)nc(-c2cc[nH]c3nccc2-3)n1 [ceralasertib] and NC1(C(=O)N[C@@H](CCO)c2ccc(Cl)cc2)CCN(c2nc[nH]c3nccc2-3)CC1 [capivasertib] are within error of each other in “CTG-3D luminescence at 96 h” value: 2.45 ± 0.55 for the first, 1.76 ± 0.28 for the second.

CCN1CCN(Cc2ccc(Nc3ncc(F)c(-c4cc(F)c5nc(C)n(C(C)C)c5c4)n3)nc2)CC1 [abemaciclib] and Cc1cc(Nc2ncc(Cl)c(Nc3ccccc3S(=O)(=O)C(C)C)n2)c(OC(C)C)cc1C1CCNCC1 [ceritinib] are within error of each other in “CTG-3D luminescence at 96 h” value: 2.27 ± 0.32 for the first, 2.06 ± 0.46 for the second.

Compared with CC(C)n1nc(-c2ccc3oc(N)nc3c2)c2c(N)ncnc21 [sapanisertib], NC(=O)c1cccc2cn(-c3ccc([C@@H]4CCCNC4)cc3)nc12 [niraparib] is higher in “CTG-3D luminescence at 96 h” value: 0.0566 ± 0.025 for the first, 2.06 ± 0.65 for the second.

O=C(c1ccc(F)c(F)c1Nc1ccc(I)cc1F)N1CC(O)([C@@H]2CCCCN2)C1 [cobimetinib] and CS(=O)(=O)c1ccc(C(=O)Nc2ccc(Cl)c(-c3ccccn3)c2)c(Cl)c1 [vismodegib] are within error of each other in “CTG-3D luminescence at 96 h” value: 2.18 ± 0.35 for the first, 2.17 ± 0.6 for the second.

For C[C@H](NC(=O)CCC(F)(F)F)C(=O)N[C@@H]1C(=O)N(CCO)c2ncccc2-c2ccccc21 [crenigacestat], the “CTG-3D luminescence at 96 h” value was 2.4 ± 0.31.

Same assay, conditions: 1 µM

First: C[C@@H]1COCCN1c1cc(C2([S@](C)(=N)=O)CC2)nc(-c2cc[nH]c3nccc2-3)n1 [ceralasertib]
Second: NC1(C(=O)N[C@@H](CCO)c2ccc(Cl)cc2)CCN(c2nc[nH]c3nccc2-3)CC1 [capivasertib]
The “CTG-3D luminescence at 96 h” value of the first is higher: 1.51 ± 0.34 for the first, 0.832 ± 0.14 for the second.

CCN1CCN(Cc2ccc(Nc3ncc(F)c(-c4cc(F)c5nc(C)n(C(C)C)c5c4)n3)nc2)CC1 [abemaciclib] and Cc1cc(Nc2ncc(Cl)c(Nc3ccccc3S(=O)(=O)C(C)C)n2)c(OC(C)C)cc1C1CCNCC1 [ceritinib] are within error of each other in “CTG-3D luminescence at 96 h” value: 1.98 ± 0.34 for the first, 2.05 ± 0.53 for the second.

Compared with CC(C)n1nc(-c2ccc3oc(N)nc3c2)c2c(N)ncnc21 [sapanisertib], NC(=O)c1cccc2cn(-c3ccc([C@@H]4CCCNC4)cc3)nc12 [niraparib] is higher in “CTG-3D luminescence at 96 h” value: 0.0162 ± 0.011 for the first, 1.81 ± 0.66 for the second.

O=C(c1ccc(F)c(F)c1Nc1ccc(I)cc1F)N1CC(O)([C@@H]2CCCCN2)C1 [cobimetinib] and CS(=O)(=O)c1ccc(C(=O)Nc2ccc(Cl)c(-c3ccccn3)c2)c(Cl)c1 [vismodegib] are within error of each other in “CTG-3D luminescence at 96 h” value: 1.66 ± 0.39 for the first, 2.08 ± 0.6 for the second.

C[C@H](NC(=O)CCC(F)(F)F)C(=O)N[C@@H]1C(=O)N(CCO)c2ncccc2-c2ccccc21 [crenigacestat] was tested, and the “CTG-3D luminescence at 96 h” value was 2.16 ± 0.72.

Same assay, conditions: 10 µM

C[C@@H]1COCCN1c1cc(C2([S@](C)(=N)=O)CC2)nc(-c2cc[nH]c3nccc2-3)n1 [ceralasertib] and NC1(C(=O)N[C@@H](CCO)c2ccc(Cl)cc2)CCN(c2nc[nH]c3nccc2-3)CC1 [capivasertib] are within error of each other in “CTG-3D luminescence at 96 h” value: 0.353 ± 0.13 for the first, 0.479 ± 0.06 for the second.

CCN1CCN(Cc2ccc(Nc3ncc(F)c(-c4cc(F)c5nc(C)n(C(C)C)c5c4)n3)nc2)CC1 [abemaciclib] and Cc1cc(Nc2ncc(Cl)c(Nc3ccccc3S(=O)(=O)C(C)C)n2)c(OC(C)C)cc1C1CCNCC1 [ceritinib] are within error of each other in “CTG-3D luminescence at 96 h” value: 0.491 ± 0.5 for the first, 0.388 ± 0.58 for the second.

Compared with CC(C)n1nc(-c2ccc3oc(N)nc3c2)c2c(N)ncnc21 [sapanisertib], NC(=O)c1cccc2cn(-c3ccc([C@@H]4CCCNC4)cc3)nc12 [niraparib] is higher in “CTG-3D luminescence at 96 h” value: 0.0035 ± 0.0049 for the first, 1.28 ± 0.43 for the second.

O=C(c1ccc(F)c(F)c1Nc1ccc(I)cc1F)N1CC(O)([C@@H]2CCCCN2)C1 [cobimetinib] and CS(=O)(=O)c1ccc(C(=O)Nc2ccc(Cl)c(-c3ccccn3)c2)c(Cl)c1 [vismodegib] are within error of each other in “CTG-3D luminescence at 96 h” value: 1.64 ± 0.61 for the first, 1.96 ± 0.75 for the second.

With C[C@H](NC(=O)CCC(F)(F)F)C(=O)N[C@@H]1C(=O)N(CCO)c2ncccc2-c2ccccc21 [crenigacestat] the “CTG-3D luminescence at 96 h” value was 2.09 ± 0.67.

Same assay, conditions: 100 µM

C[C@@H]1COCCN1c1cc(C2([S@](C)(=N)=O)CC2)nc(-c2cc[nH]c3nccc2-3)n1 [ceralasertib] and NC1(C(=O)N[C@@H](CCO)c2ccc(Cl)cc2)CCN(c2nc[nH]c3nccc2-3)CC1 [capivasertib] are within error of each other in “CTG-3D luminescence at 96 h” value: 0.0571 ± 0.035 for the first, 0.0376 ± 0.0065 for the second.

CCN1CCN(Cc2ccc(Nc3ncc(F)c(-c4cc(F)c5nc(C)n(C(C)C)c5c4)n3)nc2)CC1 [abemaciclib] and Cc1cc(Nc2ncc(Cl)c(Nc3ccccc3S(=O)(=O)C(C)C)n2)c(OC(C)C)cc1C1CCNCC1 [ceritinib] are within error of each other in “CTG-3D luminescence at 96 h” value: 0.00596 ± 0.0057 for the first, 0.0194 ± 0.046 for the second.

CC(C)n1nc(-c2ccc3oc(N)nc3c2)c2c(N)ncnc21 [sapanisertib] and NC(=O)c1cccc2cn(-c3ccc([C@@H]4CCCNC4)cc3)nc12 [niraparib] are within error of each other in “CTG-3D luminescence at 96 h” value: -0.00157 ± 0.0026 for the first, -0.000881 ± 0.0012 for the second.

Going from O=C(c1ccc(F)c(F)c1Nc1ccc(I)cc1F)N1CC(O)([C@@H]2CCCCN2)C1 [cobimetinib] to CS(=O)(=O)c1ccc(C(=O)Nc2ccc(Cl)c(-c3ccccn3)c2)c(Cl)c1 [vismodegib], the “CTG-3D luminescence at 96 h” value rises from 0.00926 ± 0.011 to 0.299 ± 0.13.

For C[C@H](NC(=O)CCC(F)(F)F)C(=O)N[C@@H]1C(=O)N(CCO)c2ncccc2-c2ccccc21 [crenigacestat], the “CTG-3D luminescence at 96 h” value was 1.64 ± 0.37.

Same assay, conditions: 625 fM

C[C@@H]1COCCN1c1cc(C2([S@](C)(=N)=O)CC2)nc(-c2cc[nH]c3nccc2-3)n1 [ceralasertib] and NC1(C(=O)N[C@@H](CCO)c2ccc(Cl)cc2)CCN(c2nc[nH]c3nccc2-3)CC1 [capivasertib] are within error of each other in “CTG-3D luminescence at 96 h” value: 2.11 ± 0.35 for the first, 2.12 ± 0.16 for the second.

CCN1CCN(Cc2ccc(Nc3ncc(F)c(-c4cc(F)c5nc(C)n(C(C)C)c5c4)n3)nc2)CC1 [abemaciclib] and Cc1cc(Nc2ncc(Cl)c(Nc3ccccc3S(=O)(=O)C(C)C)n2)c(OC(C)C)cc1C1CCNCC1 [ceritinib] are within error of each other in “CTG-3D luminescence at 96 h” value: 1.87 ± 0.25 for the first, 2.21 ± 0.59 for the second.

CC(C)n1nc(-c2ccc3oc(N)nc3c2)c2c(N)ncnc21 [sapanisertib] and NC(=O)c1cccc2cn(-c3ccc([C@@H]4CCCNC4)cc3)nc12 [niraparib] are within error of each other in “CTG-3D luminescence at 96 h” value: 2.03 ± 0.3 for the first, 1.94 ± 0.36 for the second.

O=C(c1ccc(F)c(F)c1Nc1ccc(I)cc1F)N1CC(O)([C@@H]2CCCCN2)C1 [cobimetinib] and CS(=O)(=O)c1ccc(C(=O)Nc2ccc(Cl)c(-c3ccccn3)c2)c(Cl)c1 [vismodegib] are within error of each other in “CTG-3D luminescence at 96 h” value: 1.93 ± 0.51 for the first, 1.94 ± 0.54 for the second.

C[C@H](NC(=O)CCC(F)(F)F)C(=O)N[C@@H]1C(=O)N(CCO)c2ncccc2-c2ccccc21 [crenigacestat] was tested, and the “CTG-3D luminescence at 96 h” value was 2.07 ± 0.53.

— the supplement of paper PMC8882468
